Measured values published in US11845807B2, “Method and carrier complexes for delivering molecules to cells” (priority 2003, dated 2023).
Entries after “also recorded” stand apart in the source; their conditions may differ. Square brackets hold non-standard residues; d marks the D form. Peptide text beside a SMILES is read from it. Dmt = Cc1cc(O)cc(C)c1C[C@H](N)C(=O)O

Legend:
cells in culture = details: similar studies, cell line not stated
Caco-2 cells [1] = test: Assay for peptide uptake in Caco-2 cells; assay type: cell-based
Excerpt: Assay for Peptide Uptake.

[2] = tested on: cell surface receptors, membranes prepared from Caco-2 cells; test: Radioligand binding assay using Caco-2 cell membranes; details: 15-960 pM radioligand, 60 min at 25° C.; listed as [^3H][Dmt^1]DALDA
Experimental: Radioligand Binding Assay Using Cell Membranes. […] After 4 days of culture, cells were washed two times with PBS buffer and then scraped off. Cells were centrifuged at 500 g for 5 min and the pellet stored at −80° C. Cells were homogenized in ice-cold 50 mM Tris-HCl buffer (5 μg/ml leupeptin, 2 μg/ml chymostatin, 10 μg/ml bestatin, and 1 mM EGTA, pH 7.4). The homogenate was centrifuged at 36,000 g for 20 min. The pellets were resuspended with 50 mM Tris-HCl buffer. […] Free radioligand was separated from bound radioligand by rapid filtration through GF/B filters (Whatman, Maidstone, UK) with a cell harvester (Brandel Inc., Gaithersburg, Md.). Filters were washed three times with 10 ml of Tris buffer, and radioactivity was determined by liquid scintillation counting. Binding affinities (Kd) and receptor number (Bmax) were determined using nonlinear regression (GraphPad Software, San Diego, Calif.).

Caco-2 cells [3] = test: Assay for peptide efflux from Caco-2 cells; assay type: cell-based
Experimental: Assay for Peptide Efflux from CaCo-2 Cells. […] Cells were then washed four times with 1 ml of ice-cold incubation solution to terminate uptake and then incubated with 0.5 ml of MEM for 1 h at either 37 or 4° C. to measure the efflux of peptide from cells to the incubation medium. The amount of radioactivity was determined in cell lysates and in the incubation medium.

[4] = Peptide translocation across Caco-2 monolayers (Transwell, apical-to-basolateral); assay type: in vitro ADME; details: human, Caco-2; apical-to-basolateral; read-out: apparent permeability coefficient
Experimental: (§1) Assay for Peptide Translocation across Caco-2 Monolayers. Monolayers of Caco-2 cells were prepared as described previously (Irie et al., J. Pharmacol. Exp. Ther. 2001, 298: 711-717), Caco-2 cells (2×10^5) were seeded on microporous membrane filters (24 mm, […]) inside Transwell cell culture chambers (Corning Glassworks, Corning, N.Y.). Each Transwell chamber was filled with 1.5 ml of medium in the apical compartment and 2.5 ml in the basolateral compartment. The cell monolayers were given fresh medium every 1 to 2 days and were used on day 28 for transport experiments.
(§2) The apparent permeability coefficient was calculated according to the following equation: Papp=X/(t·A·Co), where X/t is the rate of uptake in the receiver compartment, A is the diffusion area (4.72 cm^2), and Co is the initial concentration in the donor compartment.

Caco-2 monolayer = test: as above; assay type: in vitro ADME; details: 60 min
Experimental: as §1, §2

Huh7 cells [5] = test: GFP uptake into cells on co-incubation with peptide or peptide-SMCC conjugate; assay type: cell-based; details: 3 μg GFP + 40 μl peptide, 60 min at 37° C., then 24 hours; versus GFP alone
Experimental: Carrier complex formation by physical mixing of protein and [Dmt1]DALDA-SMCC conjugate. The [Dmt^1]DALDA-SMCC conjugate was prepared as described above. The protein molecules (i.e. green fluorescent protein, GFP) were mixed with the [Dmt^1]DALDA-SMCC conjugate for 15 min at room temperature before use in cellular uptake studies.
Assay for protein uptake into cells when co-incubated with [Dmt1]DALDA-SMCC conjugate. […] 2 ml of cell medium was then added to cells which were incubated for an additional 24 hours in the cell culture incubator. After incubation, cells were washed four times in cell medium and GFP retained in living cells was visualized, by confocal laser scanning microscopy. Excitation was performed at 340 nm and emission was measured at 520 nm.
2 ml of cell medium was then added to cells and incubated for an additional 24 hours in cell culture incubator. After incubation, cells were washed four times in cell medium and GFP retained in living cells was visualized by confocal laser scanning microscopy. Excitation was performed at […] and emission was measured at […].

N2A cells = test: Cell viability, MTT assay, N2A cells; assay type: cell-based; details: 1 nM to 10 μM, 24 h
SH-SY5Y cells = test: Cell viability, MTT assay, SH-SY5Y cells; assay type: cell-based; details: 1 nM to 10 μM, 24 h
Caco-2 cells [6] = test: Cell viability, MTT assay, Caco-2 cells; assay type: cell-based; details: 1 nM to 10 μM, 24 h
[7] = tested on: Caco-2, SH-SY5Y, HEK293, and CRFK cells; details: 250 nM, 1 h at 37° C., acid-wash
Experimental: Assay for Peptide Uptake. […] Monolayers of cells were grown on 12-well plates (5×10^5 cells/well) coated with collagen for 3 days. […] At the end of the incubation period, cells were washed four times with HBSS, and 0.2 ml of 0.1 N NaOH with 1% SDS was added to each well. The cell contents were then transferred to scintillation vials and radioactivity was counted. […] Before cell lysis, cells were incubated. with 0.2 ml of 0.2 M acetic acid/0.05 M NaCl for 5 min on ice.
An acid-wash step was included to distinguish internalized radioactivity (acid-resistant) from surface-bound radioactivity (acid-sensitive).

peptidase = details: Szeto et al., J. Pharmacol. Exp. Ther., 2001; cited from earlier work
Huh7 cells [8] = test: RNA uptake into cells when mixed with peptide-SMCC conjugate; assay type: cell-based; details: for increase of uptake of RNA oligo on co-incubation: 11-base RNA oligo
Experimental: Carrier complex formation by physical mixing of RNA and [Dmt^1]DALDA-SMCC conjugate. The [Dmt^1]DALDA-SMCC conjugate was prepared as described above. The RNA molecules were mixed with the [Dmt^1]DALDA-SMCC conjugate in PBS for 15 min at room temperature before use in cellular uptake studies.
Assay for uptake of RNA uptake into cells when mixed with [Dmt1]DALDA-cross-linker conjugate. Huh7 cells (1×10^6 cells/well) were washed with DMEM and then incubated with 1.0 ml DMEM containing [^32P]RNA oligo alone or with 40 μl [Dmt^1]DALDA-SMCC conjugate, for 60 min at 37° C. or 4° C. Cells were then washed four times in DMEM and one time in sodium acetate solution to reduce nonspecific binding before incubated in lysis buffer for 30 min and radioactivity determined in the cell lysate.
The carrier complex was formed by physical mixing of RNA and [Dmt^1]DALDA-SMCC conjugate. […] A single strand 11-mer [^32P]RNA oligo was mixed with the [Dmt^1]DALDA-SMCC conjugate for 15 min at room temperature before use in cellular uptake studies.
Huh7 cells (1×10^6 cells/well) were washed with DMEM and then incubated with 1.0 ml DMEM containing the [^32P]RNA oligo (100,000 cpm) alone or with […] [Dmt^1]DALDA-SMCC conjugate at 37° C. or 4° C. Cells were then washed four times in DMEM and one time in sodium acetate solution to remove nonspecific binding before incubated in lysis buffer for 30 min and retained radioactivity determined.

Huh7 cells [9] = test: Cell viability by trypan blue uptake; assay type: cell-based; details: 50 μl of 1 mM conjugate in 1 ml medium, 24 hours at 37° C.
Experimental: Trypan blue is only taken by cells with increased membrane permeability. Huh7 cells (1×10^6) were washed three times in DMEM, and 1 ml of fresh medium, or media containing 50 μl of 1 mM [Dmt^1]DALDA-SMCC conjugate, [D-Arg-Dmt-Lys-Phe-NH2]-SMCC conjugate, or [Phe^1]DALDA-SMCC conjugate, and incubated at 37° C. for 24 hours at 5% CO2. Cells were then washed three times with DMEM, and 1 ml of 0.4% trypan blue was added to the cells for 2 minutes. Excessive dye was removed by washing cells in cell medium and the cells were examined by light microscopy.

Huh7 cells [10] = test: Assay of apoptosis (Hoechst dye); assay type: cell-based; details: 50 μl of 1 mM conjugate, 24 hours at 37° C., versus PBS control
Experimental: Assay of apoptosis. Apoptosis was determined with the use of Hoechst dye (Molecular Probes, Eugene, Oreg.) for staining apoptotic nuclei. The Hoechst dye was loaded to cell cultures and incubated for 15 min. Excessive Hoechst dye was removed by washing cells with cell medium. (free of pH indicator) the cells examined using fluorescent microscopy (excitation at 350 nm and emission at 461 nm).
After the incubation, 1 ml of Hoechst dye (Molecular Probes, Eugene, Oreg.) for staining apoptotic nuclei were added to cells and incubated for additional 15 min. Excessive Hoechst dye was removed by washing cells with cell medium (free of pH indicator) and cells treated with [Dmt^1]DALDA-SMCC conjugate were compared with control cells using fluorescent microscopy (excitation at 350 nm and emission at […]). Apoptosis is indicated by concentration of fluorescence in the nuclei.

Cc1cc(O)cc(C)c1C[C@H](NC(=O)[C@H](N)CCCNC(=N)N)C(=O)N[C@@H](CCCCN)C(=O)N[C@@H](Cc1ccccc1)C(N)=O [[D-Arg-Dmt-Lys-Phe-NH2], D-Arg-2′6′Dmt-Lys-Phe-NH2] (H-[dR][Dmt]KF-NH2)
toxicity to cells / cell viability (cells in culture): no effect on cell viability

Cc1cc(O)cc(C)c1C[C@H](N)C(=O)N[C@H](CCCNC(=N)N)C(=O)N[C@@H](Cc1ccccc1)C(=O)N[C@@H](CCCCN)C(N)=O [[Dmt^1]DALDA, 2′,6-Dmt-D-Arg-Phe-Lys-NH2]
concentration dependence of uptake (Caco-2 cells [1]; 1 μM-3 mM, 1 h at 37° C.): concentration-dependent over a wide range of concentrations
effect of verapamil (P-glycoprotein inhibitor) on cellular uptake (Caco-2 cells [1]; 100 μM verapamil): no effect
increase of uptake by DEPC (Caco-2 cells [1]; 0.2 mM DEPC): 34 fold
effect of 4° C. on uptake (Caco-2 cells [1]; 4° C. versus 37° C.): slower compared with 37 °C
uptake at 4° C. by 45 min (Caco-2 cells [1]; 4° C., 45 min, compared with 37° C.): 76.5%
uptake at 4° C. by 1 h (Caco-2 cells [1]; 4° C., 1 h, compared with 37° C.): 86,3%
time at which peptide was first observed in cell lysate (Caco-2 cells [1]; 37° C., 250 nM): 5 min
fraction resistant to acid-wash (presumed inside the cell) (Caco-2 cells [1]; 1 h at 37° C., acid-wash before lysis): 80.8%
total amount recovered in cell lysate, of the total drug (Caco-2 cells [1]; after 1-h incubation, 37° C.): about 1%
effect of pH on uptake (Caco-2 cells [1]; pH varied from 4.0 to 7.4, 1 h at 37° C.): unchanged
specific binding to Caco-2 membranes [2]: No high-affinity specific binding was observed
effect of verapamil (P-glycoprotein inhibitor) on efflux (Caco-2 cells [3]; 100 μM verapamil): not affected
effect of DEPC on efflux (Caco-2 cells [3]; 0.2 mM DEPC, 10 min at 25° C. before loading): decreased
effect of temperature (4° C.) on efflux (Caco-2 cells [3]; 4° C. versus 37° C.): temperature had a significant effect
peptide effluxed into medium (Caco-2 cells [3]; preloaded 1 h, 1 h efflux at 37° C.): 80%
Papp A→B at 0.2 μM [4]: 12.4 ×10⁻⁶ cm/s
percentage translocated from the apical to the basolateral side (Caco-2 monolayer): 10.4%
uptake of GFP into cells (green fluorescence) (Huh7 cells [5]): moderately increased green fluorescence within the cell cytoplasm
cell viability (MTT assay) (N2A cells): no effect on cell viability; also recorded: not toxic to cells in culture
cell viability (MTT assay) (SH-SY5Y cells): no effect on cell viability
cell viability (MTT assay) (Caco-2 cells [6]): no effect on cell viability
internalization (acid-resistant radioactivity) in different cell lines [7]: taken up extensively in all cell types
resistance against peptidase degradation (peptidase): resistant against peptidase degradation

Cc1cc(O)cc(C)c1C[C@H](N)C(=O)N[C@H](CCCNC(=N)N)C(=O)N[C@@H](Cc1ccccc1)C(=O)N[C@@H](CCCCNC(=O)C1CCC(CN2C(=O)C=CC2=O)CC1)C(N)=O (stereo partly drawn) [[Dmt^1]DALDA-SMCC conjugate]
uptake of GFP into cells (green fluorescence) (Huh7 cells [5]): even greater uptake of GFP; also recorded: enhances uptake of green fluorescent protein
increase of uptake of RNA oligo on co-incubation (Huh7 cells [8]; 15 min at 37° C.): 10 fold
increase of uptake of RNA oligo on co-incubation (Huh7 cells [8]; 60 min at 37° C.): ~20 fold
increase of uptake of 11-mer RNA on co-incubation (Huh7 cells [8]; FIG. 13 experiment, 60 min at 37° C.): 22 fold
trypan blue uptake (cell viability) (Huh7 cells [9]): No increase in trypan blue uptake
apoptosis (Hoechst staining of nuclei) (Huh7 cells [10]): did not induce apoptosis; also recorded: does not induce apoptosis
